From ChEMBL document CHEMBL1201862, “PubChem BioAssay data set” (2004)
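All cell lines were grown in 96-well plates and treated with compound for 48 hours. The concentration for 50% growth inhibition is given as GI50.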 Active and inactive are the calls of the source. Cut-off read from the data, not from the text of the source: active = GI50 up to about 1.1 µM and inactive = higher.

How the values were obtained:
Assay in all cases: DTP human tumour cell line panel, 48 h
OVCAR-8 = test system: OVCAR-8
OVCAR-4 = test system: OVCAR-4
IGROV-1 = test system: IGROV-1
HCT-15 = test system: HCT-15
COLO 205 = test system: COLO 205
OVCAR-5 = test system: OVCAR-5
RPMI-8226 = test system: RPMI-8226
DLD-1 = test system: DLD-1
HT-29 = test system: HT-29
TK-10 = test system: TK-10
HCT-116 = test system: HCT-116
DMS-114 = test system: DMS-114
LOX IMVI = test system: LOX IMVI
LXFL 529 = test system: LXFL 529
NCI-H226 = test system: NCI-H226
CAKI-1 = test system: CAKI-1
MDA-N = test system: MDA-N
MDA-MB-231 = test system: MDA-MB-231
BT-549 = test system: BT-549
MCF7 = test system: MCF7

| Compound | GI50 (OVCAR-8) | GI50 (OVCAR-4) | GI50 (IGROV-1) | GI50 (HCT-15) | GI50 (COLO 205) | GI50 (OVCAR-5) | GI50 (RPMI-8226) | GI50 (DLD-1) | GI50 (HT-29) | GI50 (TK-10) | GI50 (HCT-116) | GI50 (DMS-114) | GI50 (LOX IMVI) | GI50 (LXFL 529) | GI50 (NCI-H226) | GI50 (CAKI-1) | GI50 (MDA-N) | GI50 (MDA-MB-231) | GI50 (BT-549) | GI50 (MCF7) |
| --- | --- | --- | --- | --- | --- | --- | --- | --- | --- | --- | --- | --- | --- | --- | --- | --- | --- | --- | --- | --- |
| O=C1c2ccccc2-c2cccc3ccc(Cc4ccc5ccccc5c4)c1c23 | > 100 µM (inactive) | > 100 µM (inactive) | > 100 µM (inactive) | > 100 µM | > 100 µM (inactive) | > 100 µM (inactive) | > 100 µM (inactive) | > 100 µM (inactive) | > 100 µM (inactive) | > 100 µM (inactive) | > 100 µM (inactive) | – | – | – | – | – | – | – | – | – |
| CCn1cnnc1-c1nsc2ccccc12 | > 100 µM (inactive) | > 100 µM (inactive) | > 100 µM (inactive) | > 100 µM | > 100 µM (inactive) | 7.52 µM (inactive) | > 100 µM (inactive) | – | > 100 µM (inactive) | > 100 µM (inactive) | > 100 µM (inactive) | > 100 µM (inactive) | > 100 µM (inactive) | > 100 µM (inactive) | – | – | – | – | – | – |
| COc1ccc(C2C(Cl)C(=O)N2NC(=O)c2ccc(NC(C)=O)cc2)cc1OC (stereo unspecified) | > 100 µM (inactive) | – | > 100 µM (inactive) | – | > 100 µM (inactive) | > 100 µM (inactive) | > 100 µM (inactive) | – | > 100 µM (inactive) | > 100 µM (inactive) | > 100 µM (inactive) | – | – | > 100 µM (inactive) | > 100 µM (inactive) | – | – | – | – | – |
| N=C(N)SCCN1CCCCC1 | 28.6 µM (inactive) | 31.6 µM (inactive) | 36.6 µM (inactive) | 25.6 µM | > 100 µM (inactive) | 86.1 µM (inactive) | 14.1 µM (inactive) | – | 29.9 µM (inactive) | 43.7 µM (inactive) | 26.7 µM (inactive) | – | 20.2 µM (inactive) | – | 21.4 µM (inactive) | 26.7 µM (inactive) | 30.2 µM (inactive) | 22.8 µM (inactive) | 25.1 µM (inactive) | 16.6 µM (inactive) |
| O=C1NC(=S)NC(=O)C1=Cc1ccc(-c2ccccc2)cc1 | 49.8 µM (inactive) | > 100 µM (inactive) | > 100 µM (inactive) | > 100 µM | > 100 µM (inactive) | > 100 µM (inactive) | 66.2 µM (inactive) | – | > 100 µM (inactive) | > 100 µM (inactive) | 51.3 µM (inactive) | – | 69.3 µM (inactive) | – | > 100 µM (inactive) | > 100 µM (inactive) | > 100 µM (inactive) | 99.8 µM (inactive) | > 100 µM (inactive) | 72.8 µM (inactive) |
| N/C(=N/O)N/N=C\c1cc(Cl)cc(Cl)c1O | 2.38 µM (inactive) | 8.04 µM (inactive) | 6.97 µM (inactive) | 2.02 µM | 5.7 µM (inactive) | 7.36 µM (inactive) | 3.99 µM (inactive) | 7.48 µM (inactive) | 5.2 µM (inactive) | – | 1.36 µM (inactive) | – | 0.918 µM (active) | – | 2.01 µM (inactive) | 1.09 µM (active) | – | – | – | 0.428 µM (active) |
| O=[N+]([O-])c1cc(C(F)(F)F)cc2c1SC1=Nc3ccccc3CN12 | > 100 µM (inactive) | > 100 µM (inactive) | > 100 µM (inactive) | > 100 µM | > 100 µM (inactive) | > 100 µM (inactive) | > 100 µM (inactive) | > 100 µM (inactive) | > 100 µM (inactive) | – | > 100 µM (inactive) | > 100 µM (inactive) | > 100 µM (inactive) | – | > 100 µM (inactive) | > 100 µM (inactive) | – | – | – | > 100 µM (inactive) |
| O=c1n(Cc2ccccc2)c2ccccc2n1CC1CS1 (stereo unspecified) | > 100 µM (inactive) | > 100 µM (inactive) | > 100 µM (inactive) | > 100 µM | > 100 µM (inactive) | > 100 µM (inactive) | > 100 µM (inactive) | – | – | > 100 µM (inactive) | > 100 µM (inactive) | > 100 µM (inactive) | > 100 µM (inactive) | > 100 µM (inactive) | > 100 µM (inactive) | > 100 µM (inactive) | – | – | – | – |
| O=C1/C(=C/c2ccc(Cl)cc2)Sc2scc(-c3cccc([N+](=O)[O-])c3)[n+]21 | 7.55 µM (inactive) | 6.97 µM (inactive) | 2.96 µM (inactive) | 1.9 µM | 1.86 µM (inactive) | 10.8 µM (inactive) | 1.39 µM (inactive) | – | 5.65 µM (inactive) | 2.13 µM (inactive) | 2.06 µM (inactive) | – | 3.01 µM (inactive) | – | 29.8 µM (inactive) | 3.01 µM (inactive) | 3.36 µM (inactive) | 5.22 µM (inactive) | 2.2 µM (inactive) | 3.91 µM (inactive) |
| CC(=O)Nc1ccc(C(=O)N2N=C(C)/C(=C/c3cccc(O)c3)C2=O)cc1 | > 100 µM (inactive) | > 100 µM (inactive) | – | > 100 µM | > 100 µM (inactive) | > 100 µM (inactive) | – | > 100 µM (inactive) | > 100 µM (inactive) | > 100 µM (inactive) | > 100 µM (inactive) | > 100 µM (inactive) | > 100 µM (inactive) | – | > 100 µM (inactive) | > 100 µM (inactive) | – | – | – | – |
| CN1C(=O)C2(C)SC1(c1ccccc1)C1C(=O)N(c3ccccc3)C(=O)C12 (stereo unspecified) | > 100 µM (inactive) | 41.3 µM (inactive) | 48 µM (inactive) | 66.4 µM | 67.9 µM (inactive) | > 100 µM (inactive) | 49.8 µM (inactive) | – | 76.2 µM (inactive) | 57.4 µM (inactive) | 70.8 µM (inactive) | – | > 100 µM (inactive) | – | 60.4 µM (inactive) | > 100 µM (inactive) | > 100 µM (inactive) | > 100 µM (inactive) | > 100 µM (inactive) | 48.5 µM (inactive) |
| CN1CCC2(CC1)SC[C@H]1C(=O)N(c3ccc(Cl)cc3)C(=O)N12 | > 100 µM (inactive) | > 100 µM (inactive) | > 100 µM (inactive) | 50.1 µM | > 100 µM (inactive) | > 100 µM (inactive) | > 100 µM (inactive) | – | > 100 µM (inactive) | > 100 µM (inactive) | > 100 µM (inactive) | – | > 100 µM (inactive) | – | > 100 µM (inactive) | > 100 µM (inactive) | > 100 µM (inactive) | > 100 µM (inactive) | > 100 µM (inactive) | > 100 µM (inactive) |
| COCOc1ccc(OC)cc1 | > 100 µM (inactive) | > 100 µM (inactive) | > 100 µM (inactive) | > 100 µM | > 100 µM (inactive) | > 100 µM (inactive) | > 100 µM (inactive) | > 100 µM (inactive) | > 100 µM (inactive) | – | > 100 µM (inactive) | – | > 100 µM (inactive) | – | > 100 µM (inactive) | > 100 µM (inactive) | – | – | – | > 100 µM (inactive) |
| O=C1NCCCC12CCCNC2=O | > 100 µM (inactive) | – | > 100 µM (inactive) | > 100 µM | > 100 µM (inactive) | – | > 100 µM (inactive) | – | > 100 µM (inactive) | – | > 100 µM (inactive) | > 100 µM (inactive) | > 100 µM (inactive) | > 100 µM (inactive) | > 100 µM (inactive) | – | – | – | – | – |
| Cn1c2ccccc2c2c3c(c4c5ccccc5n(C)c4c21)C(=O)c1ccccc1C3=O | 40.1 µM (inactive) | 58.3 µM (inactive) | 31 µM (inactive) | > 100 µM | 57.7 µM (inactive) | > 100 µM (inactive) | 70 µM (inactive) | – | > 100 µM (inactive) | 24.3 µM (inactive) | 30.1 µM (inactive) | – | 37.3 µM (inactive) | – | > 100 µM (inactive) | 33.9 µM (inactive) | 72.8 µM (inactive) | 19.6 µM (inactive) | 20.4 µM (inactive) | 67.1 µM (inactive) |
| N/C(=N\O)N/N=C/c1ccc2c(c1)OCCO2 | 8.49 µM (inactive) | 8.91 µM (inactive) | 12.4 µM (inactive) | 10.3 µM | 7.28 µM (inactive) | 4.72 µM (inactive) | 16.8 µM (inactive) | 19.7 µM (inactive) | 8.53 µM (inactive) | – | 21.7 µM (inactive) | > 28.2 µM (inactive) | 8.09 µM (inactive) | – | 4.08 µM (inactive) | 16.4 µM (inactive) | – | – | – | 22.1 µM (inactive) |
| Clc1ccc(Cc2nc3cc(Cl)c(Cl)cc3n2CC2CCCN3CCCCC23)cc1Cl (stereo unspecified) | 6.32 µM (inactive) | 3.4 µM (inactive) | 3.89 µM (inactive) | 4.76 µM | 1.94 µM (inactive) | 3.13 µM (inactive) | 4.13 µM (inactive) | – | 2.43 µM (inactive) | 6.05 µM (inactive) | 3.04 µM (inactive) | – | 2.44 µM (inactive) | – | 7.16 µM (inactive) | 3.46 µM (inactive) | 4.79 µM (inactive) | 3.27 µM (inactive) | 8.43 µM (inactive) | 2.38 µM (inactive) |
| C#CC1(O)C(COP(=O)(O)OC(COCCCCCCCCCCCCCCCCCC)COP(=O)(O)OCC2OC(n3cc(C)c(=O)[nH]c3=O)CC2N=[N+]=[N-])OC(n2ccc(N)nc2=O)C1O (stereo unspecified) | 0.881 µM (active) | 4.45 µM (inactive) | 0.381 µM (active) | 0.582 µM | 0.512 µM (active) | 3.28 µM (inactive) | 0.0644 µM (active) | – | 1.16 µM (inactive) | 0.505 µM (active) | 0.105 µM (active) | – | 0.224 µM (active) | – | 1.56 µM (inactive) | 0.31 µM (active) | 1.14 µM (inactive) | 2.39 µM (inactive) | 2.68 µM (inactive) | 0.122 µM (active) |
| CCOC(=O)C(C(=O)OCC)c1ccc([N+](=O)[O-])o1 | 5.24 µM (inactive) | 17.3 µM (inactive) | 20.3 µM (inactive) | 17.3 µM | 3.27 µM (inactive) | 18.2 µM (inactive) | 6.87 µM (inactive) | 4.58 µM (inactive) | 14 µM (inactive) | 16.9 µM (inactive) | 15.6 µM (inactive) | – | 3.17 µM (inactive) | 3.6 µM (inactive) | 21.9 µM (inactive) | 6.18 µM (inactive) | – | – | – | – |
